Key:
rice flat sedge = assay: Test Example 3: herbicidal effect by foliage application, Wagner pot (Table 18, symbol E); format: in vivo, rice flat sedge (Cyperus iria); conditions: 320 g/ha
Outline: (§1)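 Plants were sown in alluvial soil held under 0.1–0.5 cm standing water and grown 14 days in a greenhouse at 25–30 °C. An emulsifiable formulation, water-diluted to the set dose, was then sprayed onto the foliage, and effects were scored three weeks later using previously defined criteria.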

Italian ryegrass [1] = assay: Test Example 5: herbicidal effect by foliage application, plastic box (Table 20, symbol K); format: in vivo, Italian ryegrass (Lolium multiflorum); conditions: foliage application, AAH 320 g/ha, three weeks after application
Outline: (§2)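 Plants were sown into sterilized diluvial soil under about 1.5 cm cover and kept in a greenhouse at 25° C. to 30° C. Fourteen days on, foliage received an even spray of the diluted emulsion. Herbicidal or crop effect was judged three weeks afterwards.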

velvetleaf = assay: Test Example 5: herbicidal effect by foliage application, plastic box (Table 20, symbol M); format: in vivo, velvetleaf (Abutilon theophrasti); conditions: foliage application, AAH 320 g/ha, three weeks after application
Outline: as §2

late watergrass [2] = assay: Test Example 1: herbicidal activity, application before weed generation under submerged conditions (Table 16, symbol A); format: in vivo, late watergrass (Echinochloa oryzicola); conditions: 320 g/ha applied herbicide
Outline: (§3)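 Submerged Wagner pots (alluvial soil, 4 cm water) sown with weed seeds and planted with 2.5-leaf rice seedlings; emulsifiable concentrate diluted in water applied to water surface on sowing day. Held in greenhouse at 25-30 °C; injury scored 0-5 by herbicidal rate after three weeks.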

southern crabgrass = assay: Test Example 4: herbicidal effect by soil treatment (Table 19, symbol F); format: in vivo, southern crabgrass (Digitaria ciliaris); conditions: for herbicidal effect rating, F: southern crabgrass: amount of applied herbicide 320 g/ha; for F: southern crabgrass, herbicidal effect rating: AAH 320 g/ha
Outline: (§4)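 In this soil treatment, the formulated compound reached the seeds only through the soil: seeds were buried about 1.5 cm deep in sterilized diluvial soil, then the diluted emulsion was sprayed over the surface. After three weeks at 25° C. to 30° C. in a greenhouse, effects were graded on criteria from an earlier test.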

wild oat [3] = assay: Test Example 4: herbicidal effect by soil treatment (Table 19, symbol I); format: in vivo, wild oat (Avena fatua); conditions: for herbicidal effect rating, I: wild oat: amount of applied herbicide 320 g/ha; for I: wild oat, herbicidal effect rating: AAH 320 g/ha
Outline: as §4

lambsquarters = assay: Test Example 4: herbicidal effect by soil treatment (Table 19, symbol O); format: in vivo, lambsquarters (Chenopodium album); conditions: for herbicidal effect rating, O: lambsquarters: amount of applied herbicide 320 g/ha; for O: lambsquarters, herbicidal effect rating: AAH 320 g/ha
Outline: as §4

chickweed = assay: Test Example 4: herbicidal effect by soil treatment (Table 19, symbol P); format: in vivo, common chickweed (Stellaria media); conditions: for herbicidal effect rating, P: chickweed: amount of applied herbicide 320 g/ha; for P: chickweed, herbicidal effect rating: AAH 320 g/ha
Outline: as §4

blackgrass = assay: Test Example 5: herbicidal effect by foliage application, plastic box (Table 20, symbol J); format: in vivo, blackgrass (Alopecurus myosuroides); conditions: foliage application, AAH 320 g/ha, three weeks after application
Outline: as §2

Chinese sprangletop = assay: Test Example 3: herbicidal effect by foliage application, Wagner pot (Table 18, symbol D); format: in vivo, chinese sprangletop (Leptochloa chinensis); conditions: 320 g/ha
Outline: as §1

Italian ryegrass [4] = assay: Test Example 4: herbicidal effect by soil treatment (Table 19, symbol K); format: in vivo, Italian ryegrass (Lolium multiflorum); conditions: for herbicidal effect rating, K: Italian ryegrass: amount of applied herbicide 320 g/ha; for K: Italian ryegrass, herbicidal effect rating: AAH 320 g/ha
Outline: as §4

green foxtail = assay: Test Example 5: herbicidal effect by foliage application, plastic box (Table 20, symbol G); format: in vivo, green foxtail (Setaria viridis); conditions: foliage application, AAH 320 g/ha, three weeks after application
Outline: as §2

late watergrass [5] = assay: Test Example 2: herbicidal activity, application during weed generation under submerged conditions (Table 17, symbol A); format: in vivo, late watergrass (Echinochloa oryzicola); conditions: AAH 320 g/ha; application during weed generation, submerged conditions
Outline: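 3-wk visual-criteria score after one water-surface dose. Emulsion formulation, water-diluted to set rate; applied at 1–2 leaf stage; alluvial soil, 4 cm standing water; seeds co-sown; greenhouse 25–30° C.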

windgrass = assay: Test Example 4: herbicidal effect by soil treatment (Table 19, symbol L); format: in vivo, windgrass (Apera spica-venti); conditions: for herbicidal effect rating, L: windgrass: amount of applied herbicide 320 g/ha; for L: windgrass, herbicidal effect rating: AAH 320 g/ha
Outline: as §4

barnyard grass = assay: Test Example 5: herbicidal effect by foliage application, plastic box (Table 20, symbol H); format: in vivo, barnyard grass (Echinochloa crus-galli); conditions: foliage application, AAH 320 g/ha, three weeks after application
Outline: as §2

wild oat [6] = assay: Test Example 5: herbicidal effect by foliage application, plastic box (Table 20, symbol I); format: in vivo, wild oat (Avena fatua); conditions: foliage application, AAH 320 g/ha, three weeks after application
Outline: as §2

Japanese bulrush = assay: Test Example 1: herbicidal activity, application before weed generation under submerged conditions (Table 16, symbol B); format: in vivo, Japanese bulrush (Schoenoplectus juncoides); conditions: 320 g/ha applied herbicide
Outline: as §3

| Structure (SMILES) | herbicidal effect on E (rice flat sedge), rating 0-5 (rice flat sedge) | K: Italian ryegrass, herbicidal effect (Italian ryegrass [1]) | M: velvetleaf, herbicidal effect (velvetleaf) | Herbicidal effect on A: late watergrass (grade 0-5) (late watergrass [2]) | herbicidal effect rating, F: southern crabgrass (southern crabgrass) | herbicidal effect rating, I: wild oat (wild oat [3]) | herbicidal effect rating, O: lambsquarters (lambsquarters) | herbicidal effect rating, P: chickweed (chickweed) | J: blackgrass, herbicidal effect (blackgrass) | herbicidal effect on D (Chinese sprangletop), rating 0-5 (Chinese sprangletop) | herbicidal effect rating, K: Italian ryegrass (Italian ryegrass [4]) | G: green foxtail, herbicidal effect (green foxtail) | herbicidal effect rating, A: late watergrass (late watergrass [5]) | herbicidal effect rating, L: windgrass (windgrass) | H: barnyard grass, herbicidal effect (barnyard grass) | I: wild oat, herbicidal effect (wild oat [6]) | Herbicidal effect on B: Japanese bulrush (grade 0-5) (Japanese bulrush) | F: southern crabgrass, herbicidal effect rating (southern crabgrass) | I: wild oat, herbicidal effect rating (wild oat [3]) | O: lambsquarters, herbicidal effect rating (lambsquarters) | other results |
| --- | --- | --- | --- | --- | --- | --- | --- | --- | --- | --- | --- | --- | --- | --- | --- | --- | --- | --- | --- | --- | --- |
| Cc1nn(C)c(=O)c(-c2c(-c3ccc4c(c3)CCO4)sc3ccccc23)c1O [1-101] | 5 (Herbicidal rate of 90% or more (almost completely withered)) | 4 (Herbicidal rate of 70% or more and less than 90%) | 5 (Herbicidal rate of 90% or more (almost completely withered)) | 4 (Herbicidal rate of 70% or more and less than 90%) | 3 (Herbicidal rate of 40% or more and less than 70%) | 0 (Herbicidal rate of 5% or less (almost no effect)) | 5 (Herbicidal rate of 90% or more (almost completely withered)) | 5 (Herbicidal rate of 90% or more (almost completely withered)) | 4 (Herbicidal rate of 70% or more and less than 90%) | 5 (Herbicidal rate of 90% or more (almost completely withered)) | 4 (Herbicidal rate of 70% or more and less than 90%) | 5 (Herbicidal rate of 90% or more (almost completely withered)) | 3 (Herbicidal rate of 40% or more and less than 70%) | 4 (Herbicidal rate of 70% or more and less than 90%) | 4 (Herbicidal rate of 70% or more and less than 90%) | 3 (Herbicidal rate of 40% or more and less than 70%) | 5 (Herbicidal rate of 90% or more (almost completely withered)) | – | – | – | – |
| CCCC(=O)Oc1c(C)nn(C)c(=O)c1-c1c(-c2ccc3c(c2)CCO3)sc2ccccc12 [1-102] | 5 (Herbicidal rate of 90% or more (almost completely withered)) | 3 (Herbicidal rate of 40% or more and less than 70%) | 5 (Herbicidal rate of 90% or more (almost completely withered)) | 4 (Herbicidal rate of 70% or more and less than 90%) | 2 (Herbicidal rate of 20% or more and less than 40%) | 1 (Herbicidal rate of 5% or more and less than 20%) | 4 (Herbicidal rate of 70% or more and less than 90%) | 5 (Herbicidal rate of 90% or more (almost completely withered)) | 0 (Herbicidal rate of 5% or less (almost no effect)) | 3 (Herbicidal rate of 40% or more and less than 70%) | 3 (Herbicidal rate of 40% or more and less than 70%) | 5 (Herbicidal rate of 90% or more (almost completely withered)) | 3 (Herbicidal rate of 40% or more and less than 70%) | 0 (Herbicidal rate of 5% or less (almost no effect)) | 3 (Herbicidal rate of 40% or more and less than 70%) | 1 (Herbicidal rate of 5% or more and less than 20%) | 5 (Herbicidal rate of 90% or more (almost completely withered)) | – | – | – | – |
| Cc1nn(C)c(=O)c(-c2c(-c3cnc4ccccc4c3)sc3ccccc23)c1O [1-108] | 5 (Herbicidal rate of 90% or more (almost completely withered)) | 0 (Herbicidal rate of 5% or less (almost no effect)) | 1 (Herbicidal rate of 5% or more and less than 20%) | 3 (Herbicidal rate of 40% or more and less than 70%) | 0 (Herbicidal rate of 5% or less (almost no effect)) | 0 (Herbicidal rate of 5% or less (almost no effect)) | 3 (Herbicidal rate of 40% or more and less than 70%) | 0 (Herbicidal rate of 5% or less (almost no effect)) | 0 (Herbicidal rate of 5% or less (almost no effect)) | 3 (Herbicidal rate of 40% or more and less than 70%) | 0 (Herbicidal rate of 5% or less (almost no effect)) | 0 (Herbicidal rate of 5% or less (almost no effect)) | 0 (Herbicidal rate of 5% or less (almost no effect)) | 0 (Herbicidal rate of 5% or less (almost no effect)) | 0 (Herbicidal rate of 5% or less (almost no effect)) | 0 (Herbicidal rate of 5% or less (almost no effect)) | 2 (Herbicidal rate of 20% or more and less than 40%) | – | – | – | – |
| CCCC(=O)Oc1c(C)nn(C)c(=O)c1-c1c(-c2ccc(C(C)C)cc2)sc2ccccc12 [1-126] | 4 (Herbicidal rate of 70% or more and less than 90%) | 4 (Herbicidal rate of 70% or more and less than 90%) | 4 (Herbicidal rate of 70% or more and less than 90%) | 3 (Herbicidal rate of 40% or more and less than 70%) | – | – | – | – | 0 (Herbicidal rate of 5% or less (almost no effect)) | 5 (Herbicidal rate of 90% or more (almost completely withered)) | – | 2 (Herbicidal rate of 20% or more and less than 40%) | 2 (Herbicidal rate of 20% or more and less than 40%) | – | 4 (Herbicidal rate of 70% or more and less than 90%) | 2 (Herbicidal rate of 20% or more and less than 40%) | 3 (Herbicidal rate of 40% or more and less than 70%) | 0 (Herbicidal rate of 5% or less (almost no effect)) | 0 (Herbicidal rate of 5% or less (almost no effect)) | 2 (Herbicidal rate of 20% or more and less than 40%) | P: chickweed, herbicidal effect rating (chickweed): 2 (Herbicidal rate of 20% or more and less than 40%); K: Italian ryegrass, herbicidal effect rating (Italian ryegrass [4]): 3 (Herbicidal rate of 40% or more and less than 70%); L: windgrass, herbicidal effect rating (windgrass): 0 (Herbicidal rate of 5% or less (almost no effect)) |
| COCc1ccc(-c2sc3ccccc3c2-c2c(O)c(C)nn(C)c2=O)cc1 [1-131] | 5 (Herbicidal rate of 90% or more (almost completely withered)) | 5 (Herbicidal rate of 90% or more (almost completely withered)) | 5 (Herbicidal rate of 90% or more (almost completely withered)) | 2 (Herbicidal rate of 20% or more and less than 40%) | – | – | – | – | 4 (Herbicidal rate of 70% or more and less than 90%) | 4 (Herbicidal rate of 70% or more and less than 90%) | – | 5 (Herbicidal rate of 90% or more (almost completely withered)) | 0 (Herbicidal rate of 5% or less (almost no effect)) | – | 5 (Herbicidal rate of 90% or more (almost completely withered)) | 4 (Herbicidal rate of 70% or more and less than 90%) | 1 (Herbicidal rate of 5% or more and less than 20%) | 4 (Herbicidal rate of 70% or more and less than 90%) | 2 (Herbicidal rate of 20% or more and less than 40%) | 5 (Herbicidal rate of 90% or more (almost completely withered)) | P: chickweed, herbicidal effect rating (chickweed): 5 (Herbicidal rate of 90% or more (almost completely withered)); K: Italian ryegrass, herbicidal effect rating (Italian ryegrass [4]): 5 (Herbicidal rate of 90% or more (almost completely withered)); L: windgrass, herbicidal effect rating (windgrass): 2 (Herbicidal rate of 20% or more and less than 40%) |
